From patent US9695181B2, “Hydroximic acid derivatives and medical applications therof” (Double Rider Medicine Co., LTD., priority 2013, dated 2017)

What was measured:
Type in all cases: biochemical
[1] = biological target: PDGFR-β (Platelet-Derived Growth Factor Receptor β) protein tyrosine kinase (Homo sapiens (Human), UniProt P09619); assay: Inhibition of PDGFR-β protein tyrosine kinase substrate phosphorylation, ELISA; conditions: for IC50: ELISA, ATP 5 μM, * average of three experiments ± SD, ** one experiment; for inhibition of the activity of PDGFR-β tyrosine kinase, conclusion in words: at the molecular level
Sequence of PDGFR-β (Platelet-Derived Growth Factor Receptor β) protein tyrosine kinase (P09619 33-1106): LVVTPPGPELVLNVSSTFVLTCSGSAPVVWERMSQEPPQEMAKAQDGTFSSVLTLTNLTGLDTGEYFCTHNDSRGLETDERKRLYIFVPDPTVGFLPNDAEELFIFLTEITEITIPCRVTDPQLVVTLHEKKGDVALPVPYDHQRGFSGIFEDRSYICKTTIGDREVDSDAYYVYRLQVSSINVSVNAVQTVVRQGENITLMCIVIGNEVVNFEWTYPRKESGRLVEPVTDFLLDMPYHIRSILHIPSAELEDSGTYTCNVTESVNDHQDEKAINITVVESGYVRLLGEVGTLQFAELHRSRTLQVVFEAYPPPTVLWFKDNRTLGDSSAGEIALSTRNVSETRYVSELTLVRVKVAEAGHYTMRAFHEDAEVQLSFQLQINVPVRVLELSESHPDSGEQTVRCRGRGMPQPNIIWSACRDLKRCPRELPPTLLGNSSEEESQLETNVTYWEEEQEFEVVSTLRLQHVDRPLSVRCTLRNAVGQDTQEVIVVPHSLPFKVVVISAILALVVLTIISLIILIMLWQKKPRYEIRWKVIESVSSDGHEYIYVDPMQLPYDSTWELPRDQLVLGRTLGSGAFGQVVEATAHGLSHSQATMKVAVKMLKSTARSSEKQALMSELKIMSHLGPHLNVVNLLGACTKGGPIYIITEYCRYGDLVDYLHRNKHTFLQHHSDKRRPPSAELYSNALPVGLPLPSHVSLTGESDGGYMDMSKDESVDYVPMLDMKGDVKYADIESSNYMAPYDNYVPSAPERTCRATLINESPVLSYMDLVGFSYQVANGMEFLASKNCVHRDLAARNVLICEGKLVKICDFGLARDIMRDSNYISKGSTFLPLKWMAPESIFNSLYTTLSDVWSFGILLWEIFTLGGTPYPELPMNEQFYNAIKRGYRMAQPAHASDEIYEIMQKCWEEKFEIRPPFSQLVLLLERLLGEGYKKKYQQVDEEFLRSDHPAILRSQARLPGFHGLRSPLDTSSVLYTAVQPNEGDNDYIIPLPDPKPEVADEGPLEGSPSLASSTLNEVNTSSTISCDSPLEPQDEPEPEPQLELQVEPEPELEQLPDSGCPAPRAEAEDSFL
Experimental: Embodiment 19: Inhibition of Compound IIa, IIb, IIc and IId on the Activity of Catalyzing Substrate Phosphorylation of PDGFR-β (Platelet-Derived Growth Factor Receptor β) Protein Tyrosine Kinase at the Molecular Level: Enzyme-Linked Immunosorbent Assay (ELISA)
Tyrosine kinase PDGFR-β (MILLIPORE);
Kinase reaction substrate Poly(Glu,Tyr)4:1 (SIGMA);
(§1) (1) Kinase reaction substrate Poly(Glu,Tyr)4:1 was diluted to 20 µg/ml with potassium ion-free PBS, and enzyme labeled plate was coated by the substrate, reacted at 37° C. for 12-16 h, and then the liquid in holes was removed.
(§2) (2) Enzyme labeled plate was washed with T-PBS for 10 min three times.
(§3) (3) Enzyme labeled plate was dried at 37° C. in a dryer.
(§4) (4) The tested samples were added into holes of the coated enzyme labeled plate:
The tested samples were firstly formulated to be a 10^−2 M stock solution in DMSO, subpackaged and storaged at −20° C., and then diluted to required concentration with reaction buffer before use, added into the experiment holes to reach corresponding final concentration in a 100 μL reaction system. Meanwhile, positive control holes were created, and positive control compound Su11248 was added.
(§5) (5) Adding ATP and the tested tyrosine kinase:
(§6) ATP solution (final concentration 5 μM) diluted with reaction buffer was added, and then tested tyrosine kinase diluted with reaction buffer was added. Total volume of the reaction system was 100 μL. Meanwhile, negative control holes and enzyme-free control holes were created.
(6) The reaction system were placed in a wet box, reacted at 37° C. on a shaking table for 1 hour under a condition that light was prohibited, and after the reaction, the plate was with T-PBS washed for three times.
(7) Antibody PY99 100 μL/hole was added, and reacted at 37° C. on a shaking table for 30 minutes. The plate was washed for three times with T-PBS.
(§7) (8) Horseradish peroxidase labeled Sheep anti mouse IgG 100 μL/hole was added, and reacted at 37° C. on a shaking table for 30 minutes. The plate was washed for three times with T-PBS.
(§8) (9) OPD coloring solution 100 μL/hole was added, and reacted at room temperature for 1-10 minutes under a condition that light was prohibited.
(§9) (10) 2M H2SO4 50 μL was added to terminate the reaction, and value A490 was measured by tunable wavelength type micro plate (Molecular Devices SPECTRAMAX190).
(§10) (11) The inhibition rate of the sample was obtained by the following equation:
(§11) [formula] Experimental Result

Human HDAC1 = Human HDAC1 (Homo sapiens (Human), UniProt Q13547); assay: Inhibition of catalyzing activity of histone deacetylase 1 (HDAC1), fluorescence detection; conditions: for IC50: substrate Ac-Lys-Tyr-Lys(Ac)-AMC, * average of three experiments ± SD, ** one experiment
Sequence of Human HDAC1 (Q13547 whole entry): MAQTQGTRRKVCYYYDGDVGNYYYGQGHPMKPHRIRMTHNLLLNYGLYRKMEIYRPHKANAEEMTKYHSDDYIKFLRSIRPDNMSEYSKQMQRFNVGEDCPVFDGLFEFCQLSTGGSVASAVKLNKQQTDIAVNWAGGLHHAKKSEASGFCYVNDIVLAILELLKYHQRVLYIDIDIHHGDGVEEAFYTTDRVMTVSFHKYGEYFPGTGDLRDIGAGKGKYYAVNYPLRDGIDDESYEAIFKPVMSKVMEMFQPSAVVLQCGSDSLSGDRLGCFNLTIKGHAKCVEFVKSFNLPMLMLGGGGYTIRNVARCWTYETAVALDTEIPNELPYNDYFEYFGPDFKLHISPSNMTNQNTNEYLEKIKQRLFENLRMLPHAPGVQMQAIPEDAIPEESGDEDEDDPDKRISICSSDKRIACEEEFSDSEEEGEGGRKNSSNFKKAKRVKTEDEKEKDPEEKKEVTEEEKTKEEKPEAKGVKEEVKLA
Experimental: Human HDAC1, obtained by utilizing baculovirus expression system;
Substrate, Ac-Lys-Tyr-Lys (Ac)-AMC;
Enzymatic activity was tested in 96-well or 384-well flat microwell plate by fluorescence detection and taking Ac-Lys-Tyr-Lys(Ac)-AMC as substrate. The tested samples was firstly formulated to be a 10^−2 M stock solution in DMSO, subpackaged and storaged at −20° C., and then diluted to required concentration with reaction buffer before use. […] The initial reaction speed was calculated by detecting the change of fluorescence signal with time.

[2] = biological target: KDR (VEGFR2) protein tyrosine kinase (Homo sapiens (Human), UniProt P35968); assay: Inhibition of KDR (VEGFR2) protein tyrosine kinase substrate phosphorylation, ELISA; conditions: for IC50: ELISA, ATP 5 μM, * average of three experiments ± SD, ** one experiment
Sequence of KDR (VEGFR2) protein tyrosine kinase (P35968 20-1356, species assumed): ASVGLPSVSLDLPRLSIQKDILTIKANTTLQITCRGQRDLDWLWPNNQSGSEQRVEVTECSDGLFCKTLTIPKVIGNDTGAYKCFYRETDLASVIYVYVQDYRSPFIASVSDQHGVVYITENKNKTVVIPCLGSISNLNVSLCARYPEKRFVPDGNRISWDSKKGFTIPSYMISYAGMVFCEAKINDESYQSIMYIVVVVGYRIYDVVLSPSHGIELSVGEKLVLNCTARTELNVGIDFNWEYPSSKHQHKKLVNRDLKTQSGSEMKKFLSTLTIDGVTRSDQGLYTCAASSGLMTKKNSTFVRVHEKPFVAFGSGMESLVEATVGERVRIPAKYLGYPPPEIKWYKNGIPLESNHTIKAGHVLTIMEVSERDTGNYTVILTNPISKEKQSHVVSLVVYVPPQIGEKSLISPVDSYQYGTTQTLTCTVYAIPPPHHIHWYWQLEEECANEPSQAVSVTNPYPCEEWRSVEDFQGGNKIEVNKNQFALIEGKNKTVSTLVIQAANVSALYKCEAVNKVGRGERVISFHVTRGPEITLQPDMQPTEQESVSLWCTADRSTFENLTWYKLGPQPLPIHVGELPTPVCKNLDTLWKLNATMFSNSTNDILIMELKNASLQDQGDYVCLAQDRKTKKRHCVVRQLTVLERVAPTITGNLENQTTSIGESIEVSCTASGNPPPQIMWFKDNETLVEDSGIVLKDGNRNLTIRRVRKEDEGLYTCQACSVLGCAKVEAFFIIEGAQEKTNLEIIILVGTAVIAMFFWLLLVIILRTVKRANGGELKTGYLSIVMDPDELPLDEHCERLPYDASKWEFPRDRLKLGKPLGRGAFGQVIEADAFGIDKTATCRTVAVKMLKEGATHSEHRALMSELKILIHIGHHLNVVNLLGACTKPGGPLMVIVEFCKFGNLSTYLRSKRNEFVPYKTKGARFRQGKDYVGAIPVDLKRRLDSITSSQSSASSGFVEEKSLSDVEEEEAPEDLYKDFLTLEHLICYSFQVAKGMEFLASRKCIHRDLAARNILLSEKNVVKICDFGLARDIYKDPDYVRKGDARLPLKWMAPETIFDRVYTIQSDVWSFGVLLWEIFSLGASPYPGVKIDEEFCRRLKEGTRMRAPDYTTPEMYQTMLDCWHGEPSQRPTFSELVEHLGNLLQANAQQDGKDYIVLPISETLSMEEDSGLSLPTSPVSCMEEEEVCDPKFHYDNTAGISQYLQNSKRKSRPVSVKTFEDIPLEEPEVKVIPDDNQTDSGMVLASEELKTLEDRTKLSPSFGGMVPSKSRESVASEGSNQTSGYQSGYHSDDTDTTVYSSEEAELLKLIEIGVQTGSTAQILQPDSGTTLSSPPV
Experimental: Kinase reaction substrate Poly(Glu, Tyr)4:1 (SIGMA);
as §1, §2, §3, §4
The tested samples was firstly formulated to be a 10^−2 M stock solution in DMSO, subpackaged and storaged at −20° C., and then diluted to required concentration with reaction buffer before use, added into the experiment holes to reach corresponding final concentration in a 100 μL reaction system. Meanwhile, positive control holes were created, and added with positive control compound Su11248.
as §5, §6
(6) The reaction systems were placed in a wet box, reacted at 37° C. on a shaking table for 1 hour under a condition that light was prohibited, and after the reaction, the plate was washed with T-PBS for three times.
(7) Antibody PY99 100 μL/hole was added, reacted at 37° C. on a shaking table for 30 minutes. The plate was washed for three times with T-PBS.
as §7, §8, §9, §10, §11

Row | Compound | IC50 [1] [nM] | IC50 (Human HDAC1) [nM] | IC50 [2] [nM] | inhibition of the activity of PDGFR-β tyrosine kinase, conclusion in words [1] | inhibition of the activity of HDAC1, conclusion in words (Human HDAC1; at the molecular level) | inhibition of the activity of VEGFR2 tyrosine kinase, conclusion in words ([2]; at the molecular level)
1 | Cc1cccc(NC(=O)Nc2ccc(-c3nn(CCCCCCCC(=O)NO)c4ncnc(N)c34)cc2)c1 [Compound IIa] | 2.9 ± 1.5 | 1090 ± 210 | 3 ± 1 | – | – | –
2 | Cc1ccc(F)c(NC(=O)Nc2ccc(-c3nn(CCCCCCCC(=O)NO)c4ncnc(N)c34)cc2)c1 [Compound IIb] | 0.5 ± 0.1 | 470 ± 70 | 2.2 ± 0.9 | – | – | –
3 | Cc1cccc(NC(=O)Nc2ccc(-c3nn(CCCN(C)CCCC(=O)NO)c4ncnc(N)c34)cc2)c1 [Compound IIc] | 146 | 8650 | 572 | well inhibit | well inhibit | well inhibit
4 | Cc1cccc(NC(=O)Nc2ccc(-c3nn(CCCN(C)CCCC(=O)NO)c4ncnc(N)c34)cc2)c1 [Compound IId] | 99.9 | 13800 | 1190 | well inhibit | – | –
